Results on 1 molecule are retold here after PMC2966118 (The Journal of Biological Chemistry, 2010).

SMILES strings stand for the structures.

The assay deals with human recombinant TPC2 (hTPC2, HA-HsTPC2) (Homo sapiens, UniProt Q8NHX9). The experiment in a line: single-channel recording in planar lipid bilayer, open probability. Type of assay: biochemical.
human recombinant TPC2 (hTPC2, HA-HsTPC2), sequence (Q8NHX9 whole entry): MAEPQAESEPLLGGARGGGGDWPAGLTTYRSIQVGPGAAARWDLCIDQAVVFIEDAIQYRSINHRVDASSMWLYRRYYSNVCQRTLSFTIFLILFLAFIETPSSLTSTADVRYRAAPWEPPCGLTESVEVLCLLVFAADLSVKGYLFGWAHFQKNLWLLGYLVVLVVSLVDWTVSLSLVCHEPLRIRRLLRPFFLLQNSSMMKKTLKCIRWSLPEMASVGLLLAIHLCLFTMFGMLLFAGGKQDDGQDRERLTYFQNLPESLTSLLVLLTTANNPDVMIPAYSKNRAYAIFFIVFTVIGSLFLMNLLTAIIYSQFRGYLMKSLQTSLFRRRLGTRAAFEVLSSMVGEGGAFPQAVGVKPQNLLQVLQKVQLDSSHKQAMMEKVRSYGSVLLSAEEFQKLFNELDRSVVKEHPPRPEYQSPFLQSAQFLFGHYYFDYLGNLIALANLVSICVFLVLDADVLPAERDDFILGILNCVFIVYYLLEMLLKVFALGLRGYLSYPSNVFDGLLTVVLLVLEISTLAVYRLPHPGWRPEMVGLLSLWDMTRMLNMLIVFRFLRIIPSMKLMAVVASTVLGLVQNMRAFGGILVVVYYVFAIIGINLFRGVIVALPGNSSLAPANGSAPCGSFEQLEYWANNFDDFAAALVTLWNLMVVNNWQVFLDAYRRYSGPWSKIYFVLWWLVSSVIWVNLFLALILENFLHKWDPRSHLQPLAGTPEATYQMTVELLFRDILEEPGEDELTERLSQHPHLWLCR

Usually EC50 stands for the concentration needed to bring the measured effect to its halfway point. In the case of `Nc1ncnc2c1ncn2[C@@H]1O[C@H](COP(=O)(O)OP(=O)(O)OC[C@H]2O[C@@H]([n+]3cccc(C(=O)O)c3)[C@H](O)[C@@H]2O)[C@@H](O)[C@H]1OP(=O)(O)O` [NAADP], the EC50 was 500 nM.
